Assay: logP by HPLC on reversed-phase column (C 18), EEC Directive 79/B31 Annex V.A8, methods A and B
Assay type: physicochemical
Conditions: HPLC reversed-phase C 18, method B: 40° C., 0.1% aqueous formic acid and acetonitrile, linear gradient 10% to 90% acetonitrile
Description: Calibration was carried out using unbranched alkan-2-ones (having 3 to 16 carbon atoms) with known logP values (determination of the logP values by the retention times using linear interpolation between two successive alkanones).
A LogP of 5.0 was found for `CCCOc1nn(C)cc1C(=O)N(C1CC1)S(=O)(=O)c1ccc(Oc2ccc(F)c(O)c2)cc1Br` [Compound 304] in this work.

Same assay, conditions: reversed-phase HPLC column (C 18), HPLC reversed-phase C 18, method B: 40° C., 0.1% aqueous formic acid and acetonitrile, linear gradient 10% to 90% acetonitrile
A chromatographic logP of 2.9 was found for `Cn1cc(C(=O)N(C2CC2)S(=O)(=O)c2cccc(O)c2O)c(C(F)F)n1` [Compound 221] in this work. A chromatographic logP of 4.2 was found for `Cn1nc(C2CC2)c(C(=O)N(C2CC2)S(=O)(=O)c2ccc(O)c(O)c2O)c1O` [Compound 223] in this work. A chromatographic logP of 3.9 was found for `Cn1nc(C2CC2)c(C(=O)N(C2CC2)S(=O)(=O)c2ccc(O)c(O)c2O)c1F` [Compound 224] in this work. A chromatographic logP of 4.7 was found for `Cn1nc(C2CC2)c(C(=O)N(C2CC2)S(=O)(=O)c2cccc(O)c2O)c1Cl` [Compound 225] in this work. A chromatographic logP of 3.9 was found for `Cc1nn(C)c(C#N)c1C(=O)N(C1CC1)S(=O)(=O)c1ccc(O)c(O)c1O` [Compound 228] in this work. A chromatographic logP of 3.6 was found for `Cc1nn(C)c(N(C)C)c1C(=O)N(C1CC1)S(=O)(=O)c1ccc(O)c(O)c1O` [Compound 229] in this work. A chromatographic logP of 3.2 was found for `COc1c(C(=O)N(C2CC2)S(=O)(=O)c2ccc(O)c(O)c2O)c(C)nn1C` [Compound 230] in this work. A chromatographic logP of 3.6 was found for `Cc1nn(C)c(Oc2ccc(O)cc2)c1C(=O)N(C1CC1)S(=O)(=O)c1ccccc1O` [Compound 261] in this work. A chromatographic logP of 3.2 was found for `COc1nn(C)c(O)c1C(=O)N(C1CC1)S(=O)(=O)c1cccc(O)c1O` [Compound 278] in this work. A chromatographic logP of 3.8 was found for `COc1nn(C)c(O)c1C(=O)N(C1CC1)S(=O)(=O)c1ccc(Oc2ccccc2)cc1` [Compound 280] in this work. A chromatographic logP of 3.8 was found for `COc1nn(C)c(O)c1C(=O)N(C1CC1)S(=O)(=O)c1ccc(O)c(O)c1O` [Compound 282] in this work. A chromatographic logP of 4.3 was found for `COc1nn(C)c(O)c1C(=O)N(C1CC1)S(=O)(=O)c1ccc(Oc2ccc(Br)cc2)cc1` [Compound 284] in this work. A chromatographic logP of 2.7 was found for `CCCOc1nn(C)cc1C(=O)N(C1CC1)S(=O)(=O)c1ccc(Oc2ccc(C)nc2)cc1Br` [Compound 285] in this work. A chromatographic logP of 3 was found for `CCCOc1nn(C)cc1C(=O)N(C1CC1)S(=O)(=O)c1ccc(Oc2ccc(-n3cncn3)cc2)cc1Br` [Compound 286] in this work. A chromatographic logP of 3.4 was found for `CCCOc1nn(C)cc1C(=O)N(C1CC1)S(=O)(=O)c1ccc(Oc2ccc3ccc(=O)oc3c2)cc1Br` [Compound 287] in this work. A chromatographic logP of 3.6 was found for `CCCOc1nn(C)cc1C(=O)N(C1CC1)S(=O)(=O)c1ccc(Oc2ccc(OC)c(OC)c2)cc1Br` [Compound 288] in this work. A chromatographic logP of 4 was found for `CCCOc1nn(C)cc1C(=O)N(C1CC1)S(=O)(=O)c1ccc(Oc2ccc(OC)cc2)cc1Br` [Compound 289] in this work. A chromatographic logP of 4.1 was found for `CCCOc1nn(C)cc1C(=O)N(C1CC1)S(=O)(=O)c1ccc(Oc2ccccc2)cc1Br` [Compound 290] in this work. A chromatographic logP of 4.2 was found for `CCCOc1nn(C)cc1C(=O)N(C1CC1)S(=O)(=O)c1ccc(Oc2ccccc2O)cc1Br` [Compound 291] in this work. A chromatographic logP of 4.4 was found for `CCCOc1nn(C)cc1C(=O)N(C1CC1)S(=O)(=O)c1ccc(Oc2cccc(N(C)C)c2)cc1Br` [Compound 292] in this work. A chromatographic logP of 4.5 was found for `CCCOc1nn(C)cc1C(=O)N(C1CC1)S(=O)(=O)c1ccc(Oc2ccc(C)cc2)cc1Br` [Compound 293] in this work. A chromatographic logP of 4.5 was found for `CCCOc1nn(C)cc1C(=O)N(C1CC1)S(=O)(=O)c1ccc(Oc2ccc(F)c(O)c2)cc1Br` [Compound 294] in this work. A chromatographic logP of 4.5 was found for `CCCOc1nn(C)cc1C(=O)N(C1CC1)S(=O)(=O)c1ccc(Oc2ccc(O)cc2)cc1Br` [Compound 295] in this work. A chromatographic logP of 4.5 was found for `CCCOc1nn(C)cc1C(=O)N(C1CC1)S(=O)(=O)c1ccc(Oc2cccc(O)c2)cc1Br` [Compound 296] in this work. A chromatographic logP of 4.5 was found for `CCCOc1nn(C)cc1C(=O)N(C1CC1)S(=O)(=O)c1ccc(Oc2cccc(C(F)(F)F)c2)cc1Br` [Compound 297] in this work. A chromatographic logP of 4.6 was found for `CCCOc1nn(C)cc1C(=O)N(C1CC1)S(=O)(=O)c1ccc(Oc2ccc(C(F)(F)F)cc2)cc1Br` [Compound 298] in this work. A chromatographic logP of 4.6 was found for `CCCOc1nn(C)cc1C(=O)N(C1CC1)S(=O)(=O)c1ccc(Oc2cccc(Br)c2)cc1Br` [Compound 299] in this work. A chromatographic logP of 4.6 was found for `CCCOc1nn(C)cc1C(=O)N(C1CC1)S(=O)(=O)c1ccc(Oc2ccc(Br)cc2)cc1Br` [Compound 300] in this work. A chromatographic logP of 4.9 was found for `CCCOc1nn(C)cc1C(=O)N(C1CC1)S(=O)(=O)c1ccc(Oc2ccc(O)cc2Cl)cc1Br` [Compound 301] in this work. A chromatographic logP of 4.9 was found for `CCCOc1nn(C)cc1C(=O)N(C1CC1)S(=O)(=O)c1ccc(Oc2ccc(O)c(C(F)(F)F)c2)cc1Br` [Compound 302] in this work. A chromatographic logP of 4.9 was found for `CCCOc1nn(C)cc1C(=O)N(C1CC1)S(=O)(=O)c1ccc(Oc2ccc(Cl)c(Cl)c2)cc1Br` [Compound 303] in this work. A chromatographic logP of 5.1 was found for `CCCOc1nn(C)cc1C(=O)N(C1CC1)S(=O)(=O)c1ccc(Oc2cc(O)cc(O)c2)cc1Br` [Compound 305] in this work. A chromatographic logP of 4.3 was found for `CCCCc1ccc(S(=O)(=O)N(C(=O)c2c(C(F)(F)F)nn(C)c2F)C2CC2)cc1` [Compound 359] in this work. A chromatographic logP of 3.1 was found for `Cn1nc(C(F)(F)F)c(C(=O)N(C2CC2)S(=O)(=O)c2c(O)cccc2O)c1F` [Compound 360] in this work. A chromatographic logP of 4 was found for `Cn1nc(C(F)(F)F)c(C(=O)N(C2CC2)S(=O)(=O)c2cc(O)c(O)cc2O)c1F` [Compound 361] in this work. A chromatographic logP of 3.1 was found for `Cn1nc(C(F)(F)F)c(C(=O)N(C2CC2)S(=O)(=O)c2ccc(F)cc2O)c1F` [Compound 362] in this work. A chromatographic logP of 3.7 was found for `Cn1nc(C(F)(F)F)c(C(=O)N(C2CC2)S(=O)(=O)c2c(O)cc(O)cc2O)c1F` [Compound 363] in this work. A chromatographic logP of 3.1 was found for `Cn1nc(C(F)(F)F)c(C(=O)N(C2CC2)S(=O)(=O)c2ccccc2C(F)(F)F)c1F` [Compound 364] in this work. A chromatographic logP of 3.2 was found for `Cn1nc(C(F)(F)F)c(C(=O)N(C2CC2)S(=O)(=O)c2ccccc2OC(F)(F)F)c1F` [Compound 365] in this work. A chromatographic logP of 2.6 was found for `Cc1cc(O)cc(O)c1S(=O)(=O)N(C(=O)c1c(C(F)(F)F)nn(C)c1F)C1CC1` [Compound 367] in this work. A chromatographic logP of 3.2 was found for `Cn1nc(C(F)(F)F)c(C(=O)N(C2CC2)S(=O)(=O)c2ccc(F)cc2Br)c1F` [Compound 368] in this work. A chromatographic logP of 3 was found for `Cn1nc(C(F)(F)F)c(C(=O)N(C2CC2)S(=O)(=O)c2ccccc2I)c1F` [Compound 369] in this work. A chromatographic logP of 3.9 was found for `Cn1nc(C(F)(F)F)c(C(=O)N(C2CC2)S(=O)(=O)c2ccc(Oc3ccccc3)cc2)c1F` [Compound 370] in this work. A chromatographic logP of 3.7 was found for `Cn1nc(C(F)(F)F)c(C(=O)N(C2CC2)S(=O)(=O)c2ccc(Oc3cccc(C#N)c3Cl)cc2)c1F` [Compound 371] in this work. A chromatographic logP of 4.2 was found for `Cn1nc(C(F)(F)F)c(C(=O)N(C2CC2)S(=O)(=O)c2ccc(Oc3ncc(C(F)(F)F)cc3O)cc2)c1F` [Compound 372] in this work. A chromatographic logP of 3.9 was found for `Cn1nc(C(F)(F)F)c(C(=O)N(C2CC2)S(=O)(=O)c2c(O)cc(C(F)(F)F)cc2O)c1F` [Compound 373] in this work. A chromatographic logP of 3.9 was found for `CCc1nn(C)c(F)c1C(=O)N(C1CC1)S(=O)(=O)c1cc(O)cc(O)c1` [Compound 376] in this work. A chromatographic logP of 3.8 was found for `CCc1nn(C)c(F)c1C(=O)N(C1CC1)S(=O)(=O)c1ccc(O)c(O)c1` [Compound 378] in this work. A chromatographic logP of 3.6 was found for `CCc1nn(C)c(F)c1C(=O)N(C1CC1)S(=O)(=O)c1c(O)cc(O)cc1O` [Compound 379] in this work. A chromatographic logP of 2.3 was found for `CCc1nn(C)c(F)c1C(=O)N(C1CC1)S(=O)(=O)c1c(C)nn(C)c1O` [Compound 382] in this work. A chromatographic logP of 4.2 was found for `CCCCc1ccc(S(=O)(=O)N(C(=O)c2c(CC)nn(C)c2F)C2CC2)cc1` [Compound 383] in this work.
